Data taken from US20110053773A1, “METHODS OF IMPROVING NUTRITIONAL VALUE OF PLANTS” (UNIVERSITY OF TENNESSEE RESEARCH FOUNDATION, priority 2009, published 2011).

Experiments:
[1] = system: sweet corn (Zea mays var. rugosa) cultivar 'Incredible'; assay: Content analysis of sweet corn ears: crude protein, amino acids, detergent fiber, fatty acids, minerals (Example 1); type: in vivo; conditions: POST at b59 rates; every treatment incl. check also got atrazine 560 g ai/ha + COC 1% v/v; relative to treated check (atrazine), check=0
Text: Herbicide treatments were applied in a water carrier at 23 gallons of solution per acre on a field site near Knoxville, Tenn. and Painter, Va. Treatments include the following: 1) nicosulfuron at 35 g ai/ha (Accent); 2) mesotrione at 105 g ai/ha (Callisto); 3) nicosulfuron at 35 g ai/ha+mesotrione at 105 g ai/ha (Callisto+Accent); 4) tembotrione at 92 g ai/ha+isoxadifen-ethyl at 46 g ai/ha (Laudis); 5) topramezone at 15 g ai/ha (Impact); 6) nicosulfuron at 35 g ai/ha+isoxadifen-ethyl at 9 g ai/ha (Accent Q); 7) nicosulfuron at 35 g ai/ha+isoxadifen-ethyl at 9 g ai/ha+topramezone at 15 g ai/ha (Accent Q+Impact); 8) nicosulfuron 35 g ai/ha+isoxadifen-ethyl at 9 g ai/ha+mesotrione at 105 g ai/ha (Accent Q+Callisto); 9) treated check (atrazine or Aatrex). All treatments included a PRE application of atrazine plus metolachlor in order to maintain weed free conditions. In addition, all POST treatments (including the treated check) included atrazine at 560 g ai/ha and crop oil concentrate at 1% v/v. […] Sweet corn was harvested from the center two rows of each four row plot and weighed in the husk.

[2] = system: sweet corn variety 'Incredible'; assay: Sugar and key antioxidant content of sweet corn (Example 1, Table 15); type: in vivo, Zea mays var. rugosa; conditions: rates g ai/ha: Nicosulfuron 35, Mesotrione 105, Topramezone 18, Isoxadifen-ethyl 13, all incl. treated check with atrazine 560 g ai/ha + 1% v/v crop oil concentrate
Text: Herbicide treatments were applied in a water carrier at 23 gallons of solution per acre on a field site near Knoxville, Tenn. and Painter, Va. […] All treatments included a PRE application of atrazine plus metolachlor in order to maintain weed free conditions. In addition, all POST treatments (including the treated check) included atrazine at 560 g ai/ha and crop oil concentrate at 1% v/v. […] Sweet corn was harvested from the center two rows of each four row plot and weighed in the husk.

basil 'Genovese' = assay: Content analysis of basil: protein, minerals (Example 4, Tables 10-11); type: in vivo; conditions: 28 DA-A, rates g ai/ha: chlroprifos 3370, chlorothalonil 7900, paclobutrazol 9.7, mepiquat-chloride 37, Isoxadifen 16, Napthalic anhydride 527, + NIS 0.25 % v/v
Procedure: Greenhouse and laboratory studies were conducted to ascertain the tolerance and nutritional quality differences following postemergence applications of the insecticide chlorpyrifos, the fungicide chlorothalonil, the PGRs mepiquat-chloride and paclobutrazol, and the safeners napthalic anhydride and isoxadifen-ethyl on kale ‘Red Russian’ and basil ‘Genovese’. Visual injury was rated based on general phytotoxicity, chlorosis, and visual stunting and each measurement was based on a percent scale from 0 to 100 where 0 equals no visual response and 100 equals complete plant death. Kale and basil were both harvested approximately 4 weeks after treatments and plants were pooled over replicates for content analysis of crude protein, crude amino acid content, acid detergent fiber, neutral detergent fiber, total fatty acids, and/or key mineral content (including Na, Ca, P, Mg, K, Fe, Mn, Zn, and Cu). In addition, the amounts of key individual amino acids (aspartic acid, threonine, glutamic acid, proline, glycine, cysteine, valine, leucine, isoleucine, methionine, and lysine) and composite classifications of fatty acid (saturated fatty acids, monounsaturated fatty acids, polyunsaturated fatty acids) were also analyzed from these sub-samples for kale (Tables 10-14).

SMILES: Cc1c(C(=O)c2cnn(C)c2O)ccc(S(C)(=O)=O)c1C1=NOCC1 [Topramezone*IMPACT, topramezone]
- Acid DF [1]: 2 % of check
- Alanine [1]: 8 % of check
- Amino Acid [1]: 7 % of check
- Aspartic ac [1]: 6 % of check
- Cysteine [1]: 3 % of check
- Glutamic ac [1]: 6 % of check
- Glycine [1]: 4 % of check
- Isoleucine [1]: 10 % of check
- Leucine [1]: 8 % of check
- Lysine [1]: 10 % of check
- Methionine [1]: 8 % of check
- Neutral DF [1]: 7 % of check
- Proline [1]: 6 % of check
- Protein [1]: 8 % of check
- Threonine [1]: 12 % of check
- Valine [1]: 9 % of check
- calcium [1]: 0 % of check
- copper [1]: 0 % of check
- iron [1]: 23 % of check
- magnesium [1]: 13 % of check
- manganese [1]: 38 % of check
- mon fattyac [1]: 10 % of check
- phosphorous [1]: 8 % of check
- polyfattyac [1]: 9 % of check
- potassium [1]: 6 % of check
- sat fattyac [1]: 8 % of check
- sodium [1]: 29 % of check
- tot fattyac [1]: 9 % of check
- zinc [1]: 4 % of check
- Fructose, percent increase [2]: 63%
- Gamma-tocopherol, percent increase [2]: 8%
- Glucose, percent increase [2]: 40%
- Lutein, percent increase [2]: 0%
- Maltose, percent increase [2]: 8%
- Sucrose, percent increase [2]: −18%
- Total Sugars, percent increase [2]: 10%
- Zeaxanthin, percent increase [2]: −8%
- antheraxanthin, percent increase [2]: 23%

SMILES: COc1cc(OC)nc(NC(=O)NS(=O)(=O)c2ncccc2C(=O)N(C)C)n1 [Nicosulfuron*ACCENT, nicosulfuron]
- Acid DF [1]: 9 % of check
- Alanine [1]: 1 % of check
- Amino Acid [1]: −1 % of check
- Aspartic ac [1]: −4 % of check
- Cysteine [1]: 0 % of check
- Glutamic ac [1]: −2 % of check
- Glycine [1]: −4 % of check
- Isoleucine [1]: 0 % of check
- Leucine [1]: 0 % of check
- Lysine [1]: 1 % of check
- Methionine [1]: 0 % of check
- Neutral DF [1]: 4 % of check
- Proline [1]: −7 % of check
- Protein [1]: 7 % of check
- Threonine [1]: 2 % of check
- Valine [1]: 0 % of check
- calcium [1]: 0 % of check
- copper [1]: 0 % of check
- iron [1]: 14 % of check
- magnesium [1]: 14 % of check
- manganese [1]: 33 % of check
- mon fattyac [1]: 15 % of check
- phosphorous [1]: 6 % of check
- polyfattyac [1]: 12 % of check
- potassium [1]: 1 % of check
- sat fattyac [1]: 12 % of check
- sodium [1]: 21 % of check
- tot fattyac [1]: 13 % of check
- zinc [1]: 2 % of check
- Fructose, percent increase [2]: 48%
- Gamma-tocopherol, percent increase [2]: 1%
- Glucose, percent increase [2]: 35%
- Lutein, percent increase [2]: 9%
- Maltose, percent increase [2]: 23%
- Sucrose, percent increase [2]: −4%
- Total Sugars, percent increase [2]: 16%
- Zeaxanthin, percent increase [2]: 9%
- antheraxanthin, percent increase [2]: 15%

SMILES: CCOP(=S)(OCC)Oc1nc(Cl)c(Cl)cc1Cl [chlroprifos]
- ADF, Percent Increase Over the Untreated Check (on a % dry matter basis) (basil 'Genovese'): 10 % check
- Calcium, Percent Increase Over the Untreated Check (on a % dry matter basis) (basil 'Genovese'): 3 % check
- Copper, Percent Increase Over the Untreated Check (on a % dry matter basis) (basil 'Genovese'): 8 % check
- Iron, Percent Increase Over the Untreated Check (on a % dry matter basis) (basil 'Genovese'): 57 % check
- Magnesium, Percent Increase Over the Untreated Check (on a % dry matter basis) (basil 'Genovese'): 21 % check
- Manganese, Percent Increase Over the Untreated Check (on a % dry matter basis) (basil 'Genovese'): 12 % check
- NDF, Percent Increase Over the Untreated Check (on a % dry matter basis) (basil 'Genovese'): 9 % check
- Phosphorous, Percent Increase Over the Untreated Check (on a % dry matter basis) (basil 'Genovese'): 50 % check
- Potassium, Percent Increase Over the Untreated Check (on a % dry matter basis) (basil 'Genovese'): 27 % check
- Protein, Percent Increase Over the Untreated Check (on a % dry matter basis) (basil 'Genovese'): 32 % check
- Sodium, Percent Increase Over the Untreated Check (on a % dry matter basis) (basil 'Genovese'): 25 % check
- Soluble protein, Percent Increase Over the Untreated Check (on a % dry matter basis) (basil 'Genovese'): 42 % check
- Zinc, Percent Increase Over the Untreated Check (on a % dry matter basis) (basil 'Genovese'): 46 % check
